The source of these data is US20220273568A1, “MULT[…] FORMULATIONS OF DEXMEDETOMIDINE” (Pacira Pharmaceuticals, Inc., priority 2019, published 2022).

For series [1] the following is noted: background statement; cited from earlier work.
The conditions of series [2]: rat, in vivo, sc.
Procedure: (§1) Pharmacokinetic studies of the subcutaneous dosing of the DXM PK studies discussed herein were performed in rats where bolus DXM was compared to various formulations of DXM-MVLs at doses between 0.21-0.42 mg/kg. Female Sprague Dawley rats supplied by Absorption Systems weighing about 310 g received subcutaneous injections of either a bolus of unencapsulate (free or unencapsulated) DXM dissolved in H3PO4 solution or one the of the DXM-MVL formulations suspended in saline or buffered saline (20 mM phosphate). Injections were made on the left lateral hind limb of each rat using 100 μL syringes fitted with 25G needles. Each treatment group contained 3 rats.
(§2) Plasma samples were collected at different times points (0.5, 1, 2, 6, 12, 24, 48, 72 & 96 hour post dose) for analysis. Blood samples were collected via the right saphenous vein using a 19 gauge needle prick or cardiac puncture for the final time point, placed into chilled tubes containing the appropriate anticoagulant, inverted several times to mix, protected from light, and kept on ice until centrifugation.
A short description of a further series: in vivo. Particulars: female, Sprague Dawley, rat, sc.

Molecules are shown by their SMILES.

Procedure for in vivo: as §1, §2

In the case of `Cc1cccc([C@H](C)c2cnc[nH]2)c1C` [Unencapsulated DXM solution, dexmedetomidine], the t1/2 in series [1] was 2 h. This molecule showed an AUC/Dose in series [2] (female, Sprague Dawley) of 383 pg·h/mL/mg/kg. Also, in series [2], the Cmax/Cavg came to 2.3 and the “time at which plasma DXM levels peaked” value is given as “within an hour”. Also, in the series “in vivo”, the time of peak concentration (Tmax) was 0.5 h and the half-life is 2 h.
